Measured values: patent US6462023B1, “Cytostatic agents” (British Biotech Pharmaceuticals, Ltd., priority 1988, dated 2002)

tested on: histiocytic lymphoma (U937); assay: cell proliferation assay ([methyl-3H] thymidine incorporation), U937; format: cell-based, human; settings: 6 μM; comparison compound
Procedure: (§1) Two human cell lines namely a histiocytic lymphoma (U937) and a melanoma (RPMI-7951) were seeded into 30 mm^2 tissue culture wells, in the appropriate culture medium supplemented with 10% fetal calf serum at a density of 250 cells/mm^2. Six hours later the test compounds were added in the same culture medium to the cells to give a final concentration of 6 μM. Control wells contained cells supplemented with the same culture medium containing the equivalent amount of drug vehicle, which in this case was DMSO at a final concentration of 0.08%. After 72 hours in culture the cells were pulsed for 3 hours with [methyl-^3[H] Thymidine] (2 μCi/ml) and then harvested onto filter mats and DNA associated radioactivity counted. Results are expressed as percentage of control ^3[H] Thymidine incorporation (n=6±1 stdv).
Further examples were tested in the U937 assay described above at 6 μM and the results, expressed as percentage of control ^3[H] Thymidine incorporation (n=6±1 stdv), are set out in the following Table 2.
as §1, with “A” for “Two”, “line,” for “lines”, “(U937), was” for “(U937) and a melanoma (RPMI-7951) were”, “30MM^2” for “30 mm^2”, “cellS/MM^2.” for “cells/mm^2.”, “were” for “are”

Compound | activity in the U937 assay relative to that observed with the vehicle alone
O=c1[nH]cc(F)c(=O)[nH]1 [5-fluorouracil, reference compound] | 50%

same assay, conditions: Homo sapiens, U-937; Table 1; final concentration 6 μM; 72 hours in culture, 3 hours pulse; n=6; read-out: U937: percentage of control 3[H] Thymidine incorporation

Compound | activity at 6 µM
COC(=O)[C@@H](Cc1ccccc1)NC(=O)[C@@H](CC(C)C)[C@@H](C)C(=O)NO [Example 4, 3S-(2-Phenyl-1R-methylcarboxy-ethylcarbamoyl)-2R, 5-dimethylhexanohydroxamic acid, reference compound] | 93%

same assay, conditions: Homo sapiens, U-937; Table 2; 6 μM; 72 hours in culture; n=6; read-out: U937: percentage of control 3[H] Thymidine incorporation

Compound | activity at 6 µM
C=CC[C@H](C(=O)NO)[C@@H](CC(C)C)C(=O)N[C@@H](Cc1ccccc1)C(=O)OC(C)(C)C [Example 6, 2S-(3S-Hydroxycarbamoyl-2R-isobutyl-hex-5-enoylamino)-3-phenyilpropionic acid tert-butyl ester] | 18%
CC(C)C[C@H](CC(=O)NO)C(=O)N[C@@H](Cc1ccccc1)C(=O)OC(C)C [Example 7, 2S-(2R-Hydroxycarbamoylmethyl-4-methyl-pentanoylamino)-3-phenyl-propionic acid isopropyl ester] | 0%
CC(C)C[C@@H](C(=O)N[C@@H](Cc1ccccc1)C(=O)OC(C)C)[C@H](O)C(=O)NO [Example 8, 2S-[2R-(S-Hydroxy-hydroxycarbamoyl-methyl)-4-methyl-pentanoylamine]-3-phenyl-propionic acid isopropyl ester] | 1%
CC(C)C[C@@H](C(=O)N[C@@H](Cc1ccccc1)C(=O)OC(C)C)[C@H](C)C(=O)NO [Example 9, 2S-[2R-(1S-Hydroxycarbamoyl-ethyl)-4-methyl-pentanoylamino]-3-phenyl-propionic acid isopropyl ester] | 8%
CCCCCC[C@H](CC(=O)NO)C(=O)N[C@@H](Cc1ccccc1)C(=O)OC(C)C [Example 10, 2S-(2R-Hydroxycarbamoylmethyl-octanoylamino)-3-phenyl-propionic acid isopropyl ester] | 1%
CC(C)C[C@@H](C(=O)N[C@@H](Cc1ccccc1)C(=O)OC1CCCC1)[C@H](O)C(=O)NO [Example 11, 2S-[2R-(S-Hydroxy-hydroxycarbamoyl-methyl)-4-methyl-pentanoylamino]-3-phenyl-propionic acid cyclopentyl ester] | 0%
C=CC[C@H](C(=O)NO)[C@@H](CC(C)C)C(=O)N[C@H](C(=O)OC1CCCC1)C(C)CC (stereo partly drawn) [Example 12, 2S-(3S-Hydroxycarbamoyl-2R-isobutyl-hex-5-enoylamino)-3S-methyl-pentanoic acid cyclopentyl ester] | 10%
C=CC[C@H](C(=O)NO)[C@@H](CC(C)C)C(=O)N[C@H](Cc1ccccc1)C(=O)OCCOC [Example 13, 2S-(3S-Hydroxycarbamoyl-2R-isobutyl-hex-5-enoylamino)-3-phenylpropionic acid 2-methoxy-ethyl ester] | 4%
COCCOC(=O)[C@@H](Cc1ccccc1)NC(=O)[C@H](CC(C)C)[C@H](C)C(=O)NO [Example 14, 2S-[2R-(1S-Hydroxycarbamoyl-ethyl)-4-methyl-pentanoylamino]-3-phenyl-propionic acid 2-methoxy-ethyl ester] | 33%
CCC[C@H](C(=O)NO)[C@@H](CC(C)C)C(=O)N[C@@H](C(=O)OCCOC)C(C)(C)C [Example 15, 2S-(3S-Hydroxycarbamoyl-2R-isobutyl-hexanoylamino)-3,3-dimethyl-butyric acid 2-methoxy-ethyl ester] | 19%
CO[C@H](C(=O)NO)[C@@H](CC(C)C)C(=O)N[C@@H](Cc1ccccc1)C(=O)OC(C)C [Example 16, 2S-[2R-(S-Hydroxycarbamoyl-methoxy-methyl)-4-methyl-pentanoylamino]-3-phenyl-propionic acid isopropyl ester] | 2%
CC(C)C[C@@H](C(=O)N[C@@H](Cc1ccccc1)C(=O)OC(C)C)[C@H](CSc1cccs1)C(=O)NO [Example 17, 2S-{2R-[1S-Hydroxycarbamoyl-2-(thiophen-2-ylsulphanyl)-ethyl]-4-methyl-pentanoylamino}-3-phenyl-propionic acid isopropyl ester] | 0%
COCCOC(=O)[C@H](NC(=O)[C@H](CC(C)C)[C@H](C)C(=O)NO)C(C)(C)C [Example 18, 2S-[2R-(1S-Hydroxycarbamoyl-ethyl)-4-methyl-pentanoylamino]-3,3-dimethyl-butyric acid 2-methoxy-ethyl ester] | 54%
C=CC[C@H](C(=O)NO)[C@@H](CC(C)C)C(=O)N[C@@H](Cc1ccccc1)C(=O)OC1CCCC1 [Example 20, 2S-(3S-Hydroxycarbamoyl-2R-isobutyl-hex-5-enoylamino)-3-phenylpropionic acid cyclopentyl ester] | 0%
CCC[C@H](C(=O)NO)[C@@H](CC(C)C)C(=O)N[C@@H](Cc1ccccc1)C(=O)OC(C)C [Example 21, 2S-(3S-Hydroxycarbamoyl-2R-isobutyl-hexanoylamino)-3-phenylpropionic acid isopropyl ester] | 1%
C=CC[C@H](C(=O)NO)[C@@H](CC(C)C)C(=O)N[C@H](C(=O)OC(C)C)C(C)(C)C [Example 22, 2S-(3S-Hydroxycarbamoyl-2R-isobutyl-hex-5-enoylamino)-3,3-dimethyl-butyric acid isopropyl ester] | 51%
C=CC[C@H](C(=O)NO)[C@@H](CC(C)C)C(=O)N[C@H](Cc1ccccc1)C(=O)OC(C)C [Example 23, 2R-(3S-Hydroxycarbamoyl-2R-isobutyl-hex-5-enoylamino)-3-phenylpropionic acid isopropyl ester] | 36%
CO[C@H](C(=O)NO)[C@@H](CC(C)C)C(=O)N[C@H](C(=O)OC(C)C)C(C)(C)C [Example 24, 2S-[2R-(S-Hydroxycarbamoyl-methoxy-methyl)-4-methyl-pentanoylamino]-3,3-dimethyl-butyric acid isopropyl ester] | 50%
C=CC[C@H](C(=O)NO)[C@@H](CC(C)C)C(=O)N(C)[C@@H](Cc1ccccc1)C(=O)OC(C)C [Example 25, 2S-{(3S-Hydroxycarbamoyl-2R-isobutyl-hex-5-enoyl)-methyl-amino)-3-phenylpropionic acid isopropyl ester] | 34%
C=CC[C@H](C(=O)NO)[C@@H](CC(C)C)C(=O)N[C@@H](Cc1ccccc1)C(=O)OCc1ccccc1 [Example 26, 2S-(3S-Hydroxycarbamoyl-2R-isobutyl-hex-5-enoylamino)-3-phenylpropionic acid benzyl ester] | 0%
C=CC[C@H](C(=O)NO)[C@@H](CC(C)C)C(=O)N[C@@H](CC(C)C)C(=O)OC1CCCC1 [Example 27, 2S-(3S-Hydroxycarbamoyl-2R-isobutyl-hex-5-enoylamino)-4-methyl-pentanoic acid cyclopentyl ester] | 0%
C=CC[C@H](C(=O)NO)[C@@H](CC(C)C)C(=O)N[C@@H](CC1CCCCC1)C(=O)OC1CCCC1 [Example 28, 3-Cyclohexyl-2S-(3S-hydroxycarbamoyl-2R-isobutyl-hex-5-enoylamino)-propionic acid cyclopentyl ester] | 0%
